In ChEMBL document CHEMBL1159138, “Antibacterial evaluation of novel N-Arylimino-1,2,3-dithiazoles and N-arylcyanothioformamides” (1996):
Converted amounts (≈) assume the structure as drawn. The source made the active and inactive calls. No cut-off for these calls is given here.

Columns and labels:
Enterococcus faecalis [1] = experiment: Antibacterial activity was determined against gram positive bacteria - Enterococcus faecalis (ATCC 29212); Inactive; type: functional, organism-based
Listeria monocytogenes [2] = experiment: Antibacterial activity was determined against gram positive bacteria - Listeria monocytogenes (CIP 82110T); Inactive; type: functional, organism-based
Staphylococcus aureus [3] = experiment: Antibacterial activity was determined against gram positive bacteria - Staphylococcus aureus(ATCC 9144); Inactive; type: functional, organism-based
Streptococcus pyogenes [4] = experiment: Antibacterial activity was determined against gram positive bacteria - Streptococcus pyogenes(ATCC 19165); Inactive; type: functional, organism-based
Enterococcus faecalis [5] = experiment: Antibacterial activity was determined against gram positive bacteria - Enterococcus faecalis (ATCC 29212).; type: functional
Enterococcus faecalis [6] = experiment: Minimum inhibitory concentration against Enterococcus faecalis (ATCC 29212) was determined using broth dilution method.; type: functional
Listeria monocytogenes [7] = experiment: Antibacterial activity was determined against gram positive bacteria - Listeria monocytogenes (CIP 82110T); type: functional
Staphylococcus aureus [8] = experiment: Minimum inhibitory concentration against Staphylococcus aureus(ATCC 9144) was determined using broth dilution method.; type: functional
Streptococcus pyogenes [9] = experiment: Minimum inhibitory concentration against Streptococcus pyogenes(ATCC 19165) was determined using broth dilution method.; type: functional
Staphylococcus aureus [10] = experiment: Antibacterial activity was determined against gram positive bacteria - Staphylococcus aureus(ATCC 9144); type: functional
Streptococcus pyogenes [11] = experiment: Antibacterial activity was determined against gram positive bacteria - Streptococcus pyogenes(ATCC 19165); type: functional
Listeria monocytogenes [12] = experiment: Minimum inhibitory concentration against Listeria monocytogenes (CIP 82110T) was determined using broth dilution method.; type: functional

| SMILES | Zone diameter (Enterococcus faecalis [1]) | Zone diameter (Listeria monocytogenes [2]) | Zone diameter (Staphylococcus aureus [3]) | Zone diameter (Streptococcus pyogenes [4]) | Zone diameter (Enterococcus faecalis [5]) [mm] | MIC (Enterococcus faecalis [6]) [µg/mL] | Zone diameter (Listeria monocytogenes [7]) [mm] | MIC (Staphylococcus aureus [8]) [µg/mL] | MIC (Streptococcus pyogenes [9]) [µg/mL] | Zone diameter (Staphylococcus aureus [10]) [mm] | Zone diameter (Streptococcus pyogenes [11]) [mm] | MIC (Listeria monocytogenes [12]) [µg/mL] |
| --- | --- | --- | --- | --- | --- | --- | --- | --- | --- | --- | --- | --- |
| COc1ccc(NC(=S)C#N)cc1 | inactive | inactive | inactive | inactive | – | – | – | – | – | – | – | – |
| COC(=O)c1cc(OC)c(OC)cc1/N=c1\ssnc1Cl | – | – | – | – | 14 | 32 (≈ 92.3 µM) | 17 | 32 (≈ 92.3 µM) | 32 (≈ 92.3 µM) | 17 | 14 | 32 (≈ 92.3 µM) |
| Clc1nss/c1=N\c1ccccc1 | – | – | – | – | 19 | 16 (≈ 70 µM) | 27 | 16 (≈ 70 µM) | 32 (≈ 140 µM) | 29 | 26 | 16 (≈ 70 µM) |
| N#CC(=S)Nc1ccccc1C#N | inactive | inactive | inactive | inactive | – | – | – | – | – | – | – | – |
| COc1ccccc1/N=C(/S)C#N | inactive | inactive | inactive | inactive | – | – | – | – | – | – | – | – |
| COc1cc(NC(=S)C#N)cc(OC)c1OC | inactive | inactive | inactive | inactive | – | – | – | – | – | – | – | – |
| COc1cc(C#N)c(/N=C(/S)C#N)cc1OC | inactive | inactive | inactive | inactive | – | – | – | – | – | – | – | – |
| N#CC(=S)Nc1ccc2c(c1)OCCO2 | inactive | inactive | inactive | inactive | – | – | – | – | – | – | – | – |
| COc1ccccc1/N=c1\ssnc1Cl | – | – | – | – | 17 | 16 (≈ 61.8 µM) | 21 | 32 (≈ 124 µM) | 32 (≈ 124 µM) | 20 | 22 | 16 (≈ 61.8 µM) |
| N#Cc1ccccc1/N=c1\ssnc1Cl | – | – | – | – | 11 | 32 (≈ 126 µM) | 11 | 32 (≈ 126 µM) | 32 (≈ 126 µM) | 11 | 15 | 32 (≈ 126 µM) |
| COc1ccc(NC(=S)C#N)cc1OC | inactive | inactive | inactive | inactive | – | – | – | – | – | – | – | – |
| COc1ccc(/N=c2\ssnc2Cl)cc1OC | – | – | – | – | 13 | 32 (≈ 111 µM) | 12 | 32 (≈ 111 µM) | 32 (≈ 111 µM) | 13 | 16 | 32 (≈ 111 µM) |
| Clc1nss/c1=N\c1ccc2c(c1)OCCO2 | – | – | – | – | 10 | 32 (≈ 112 µM) | 10 | 32 (≈ 112 µM) | 32 (≈ 112 µM) | 12 | 11 | 32 (≈ 112 µM) |
| COC(=O)c1ccccc1/N=c1\ssnc1Cl | – | – | – | – | 16 | 32 (≈ 112 µM) | 17 | 32 (≈ 112 µM) | 32 (≈ 112 µM) | 18 | 18 | 32 (≈ 112 µM) |
| COc1cc(C#N)c(/N=c2\ssnc2Cl)cc1OC | – | – | – | – | 10 | 32 (≈ 102 µM) | 10 | 32 (≈ 102 µM) | 32 (≈ 102 µM) | 10 | 13 | 32 (≈ 102 µM) |
| N#CC(=S)Nc1ccccc1 | inactive | inactive | inactive | inactive | – | – | – | – | – | – | – | – |
| COc1cc(/N=c2\ssnc2Cl)cc(OC)c1OC | – | – | – | – | 10 | 32 (≈ 100 µM) | 17 | 32 (≈ 100 µM) | 32 (≈ 100 µM) | 13 | 16 | 32 (≈ 100 µM) |
| COC(=O)c1cc(OC)c(OC)cc1/N=C(/S)C#N | inactive | inactive | inactive | inactive | – | – | – | – | – | – | – | – |
| COC(=O)c1ccccc1/N=C(/S)C#N | inactive | inactive | inactive | inactive | – | – | – | – | – | – | – | – |
| COc1ccc(/N=c2\ssnc2Cl)cc1 | – | – | – | – | 14 | 32 (≈ 124 µM) | 15 | 32 (≈ 124 µM) | 32 (≈ 124 µM) | 17 | 15 | 32 (≈ 124 µM) |
